# In patent publication US20120277208A1 (ASTELLAS PHARMA INC., priority 2009, published 2012):
# Assays:
# [1] = target: T1, recombinant human liver type GK (GST-hGK2) (Homo sapiens, UniProt P35557); experiment: Measurement of glucokinase (GK) activation; type: biochemical; settings: 10 min; test compound final concentration of 10 μM; 5 mM glucose; 27° C.; relative to DMSO
# T1 construct: made in house; host or cells: E. coli BL21
# T1 sequence (P35557 1-466 isoform P35557-2): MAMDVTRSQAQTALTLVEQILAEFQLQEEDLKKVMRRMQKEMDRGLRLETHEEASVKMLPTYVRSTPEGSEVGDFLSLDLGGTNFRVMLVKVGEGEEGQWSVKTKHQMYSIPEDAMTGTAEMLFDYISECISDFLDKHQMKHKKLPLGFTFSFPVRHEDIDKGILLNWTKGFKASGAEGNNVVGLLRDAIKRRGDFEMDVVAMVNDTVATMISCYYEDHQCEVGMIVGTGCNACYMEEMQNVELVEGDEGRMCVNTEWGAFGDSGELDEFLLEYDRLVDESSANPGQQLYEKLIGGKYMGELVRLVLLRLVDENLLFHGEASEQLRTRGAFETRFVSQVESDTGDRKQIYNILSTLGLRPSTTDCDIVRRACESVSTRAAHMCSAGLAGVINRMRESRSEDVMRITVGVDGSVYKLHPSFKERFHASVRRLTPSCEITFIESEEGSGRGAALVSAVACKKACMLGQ
# Procedure: Test Example 1 Measurement of Glucokinase (GK) Activation
# The present test was carried out in accordance with the method described in Science 301: 370-373, 2003 with partial modification, and is summarized as below.
# First, cloning of GK (GenBank No. AK122876) was carried out. PCR was carried out using 5′-[…]-3′ (SEQ ID NO: 1) and 5′-[…]-3′ (SEQ ID NO: 2) as primers, and pME18S-FL3-Glucokinase isoform 2 as a template. The resulting reaction product was TA-cloned into a pGEM-T easy vector, and then digested with EcoRI and XhoI, and the fragment was ligated to a pGEX-5X-1 vector digested in the same manner. Using this plasmid DNA (pGEX-human Glucokinase 2), a recombinant human liver type GK (GST-hGK2) fused with GST (Glutathione S-transferase) was expressed in E. coli (strain BL21), and purified by Glutathione Sepharose.
# The reaction of GK was carried out at 27° C. on a 96-well plate. First, 1 μL of a test compound diluted with dimethylsulfoxide (DMSO) (final concentration of 10 μM) was added to a 89 μL of an enzyme mixed liquid (25 mM HEPES pH 7.4, 25 mM KCl, 2 mM MgCl2, 1 mM ATP, 0.1% BSA, 1 mM DTT, 1 mM NADP (nicotinamide adenine dinucleotide phosphate), 2.5 U/mL glucose-6-phosphate dehydrogenase, GST-hGK2 adjusted to ΔODCont as described later to be about 0.05 to 0.10, all of which are final concentrations). Subsequently, 10 μL of a substrate solution (final concentration of 5 mM glucose) was added thereto to initiate the reaction. In order to quantify a final product NADPH, an absorbance at a wavelength of 340 nm was measured, and the GK activation (%) of the test compound was calculated from the increase (DOD) in the absorbance during the first 10 minutes after the initiation of the reaction, using the following formula.
# GK activation (%)=[(ΔODTest)−(ΔODCont)]/(ΔODCont)×100
# ΔODTest: ΔOD at the test compound
# Further, Ex indicates Example compound Number.
# ICR mice = experiment: Oral glucose loading test in normal mice; type: in vivo; settings: Mus musculus, AUC lowering rate of blood glucose, immediately before to 2 hours after glucose loading, vs solvent control, 10 mg/kg orally, ICR mice fasted overnight, glucose loading after 30 minutes, read-out: Blood glucose level lowering rate (%)
# Procedure: Test Example 2 Oral Glucose Loading Test in Normal Mice
# The test compound was dissolved in a solvent (5% Cremophor, 5% aqueous DMSO solution), 10 mg/kg of the test compound was orally administered to ICR mice after fasting overnight, and after 30 minutes, oral glucose loading was carried out. Immediately before the administration of the test compound, immediately before the glucose loading, and 0.25, 0.5, 1, and 2 hours after the glucose loading, blood was collected and blood glucose levels were measured. An AUC lowering rate (%) of the blood glucose levels from immediately before the glucose loading to 2 hours after the glucose loading with respect to that of the solvent control was calculated.
activation at 10 µM [1] [%],SMILES,inhibition in vivo at 10 mg/kg (ICR mice) [%]
295,COC[C@H](C)Oc1cc(Oc2ccc(-c3nc(C(N)=O)no3)nc2)cc(C(=O)Nc2ccn(C)n2)c1 [Ex 1],37
338,CNC(=O)c1noc(-c2ccc(Oc3cc(OC(C)C)cc(C(=O)Nc4ccn(C)n4)c3)cn2)n1 [Ex 2],59
380,CNC(=O)c1nnc(-c2ccc(Oc3cc(OC(C)C)cc(C(=O)Nc4ccn(C)n4)c3)cn2)o1 [Ex 3],64
319,CC(C)Oc1cc(Oc2ccc(-c3nc(C(N)=O)no3)nc2)cc(C(=O)Nc2ccn(C)n2)c1 [Ex 9],46
380,CC(C)Oc1cc(Oc2ccc(-c3nc(C(=O)N(C)C)no3)nc2)cc(C(=O)Nc2ccn(C)n2)c1 [Ex 10],61
347,CC(C)Oc1cc(Oc2cnc(N(CC3CC3)C(=O)C3CCOCC3)cn2)cc(C(=O)Nc2ccn(C)n2)c1 [Ex 23],52
269,C[C@@H](CO)Oc1cc(Oc2cnc(N(CC3CC3)C(=O)C3CCOCC3)cn2)cc(C(=O)Nc2ccn(C)n2)c1 [Ex 24],49
287,COC[C@H](C)Oc1cc(Oc2cnc(N(CC3CC3)C(=O)CN(C)C)cn2)cc(C(=O)Nc2ccn(C)n2)c1 [Ex 29],49
498,CC(C)Oc1cc(Oc2cnc(-c3noc(C(=O)N(C)C)n3)cn2)cc(C(=O)Nc2ccn(C)n2)c1 [Example 67],57
298,CC(C)Oc1cc(Oc2cnc(N(CC3CC3)C(=O)N3CCNC3=O)cn2)cc(C(=O)Nc2ccn(C)n2)c1 [Example 74],45
498,CC(C)Oc1cc(Oc2cnc(-c3nnc(C(=O)N(C)C)o3)cn2)cc(C(=O)Nc2ccn(C)n2)c1 [Example 98],54
345,CC(=O)N(CC1CC1)c1cc(Oc2cnc(N(CC3CC3)C(=O)C3CCOCC3)cn2)cc(C(=O)Nc2ccn(C)n2)c1 [Example 101],48
376,COCCOCC(=O)N(CC1CC1)c1cnc(Oc2cc(OC(C)C)cc(C(=O)Nc3ccn(C)n3)c2)cn1 [Example 119],40
502,COC[C@H](C)Oc1cc(Oc2ccc(-c3noc(C(=O)N(C)C)n3)nc2)cc(C(=O)Nc2ccn(C)n2)c1 [Example 130],65
316,CNC(=O)c1noc(-c2cnc(Oc3cc(OC(C)C)cc(C(=O)Nc4ccn(C)n4)c3)cn2)n1 [Example 138],61
237,"COCCOCC(=O)N(CC1CC1)c1cnc(Oc2cc(O[C@@H](C)CO)cc(C(=O)Nc3ccn(C)n3)c2)cn1 [Example 156, 3-[(5-{(cyclopropylmethyl)[(2-methoxyethoxy)acetyl]amino}pyrazin-2-yl)oxy]-5-{[(2S)-1-hydroxypropan-2-yl]oxy}-N-(1-methyl-1H-pyrazol-3-yl)benzamide]",18
237,C[C@@H](CO)Oc1cc(Oc2cnc(N(CC3CC3)C(=O)[C@H]3CCCO3)cn2)cc(C(=O)Nc2ccn(C)n2)c1 [Example 158],29
306,C[C@@H](CO)Oc1cc(Oc2ccc(-c3nc(C(N)=O)no3)nc2)cc(C(=O)Nc2ccn(C)n2)c1 [Example 162],25
